Test results published in patent US20060116390A1, “Hepatitis c virus inhibitors” (priority 2003, published 2006).
pIC50: −log10 of the molar value. Read-outs that look alike come from different tables or passages of the source.

Test system: HCV proteins in Rep5.1 cells (replicon cell line)
Test: Inhibitory activity of HCV: cell-based ELISA in replicon cell line Rep5.1 (decrease of HCV proteins)
Set-up: species or system hepatitis C virus
Settings: Rep5.1 cells, 72 hours with drug
Outline: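 HCV protein loss was quantified by ELISA on methanol/acetone-fixed cells 72 h after drug addition, probing with selected HCV-positive human plasma, and IC50 was defined as 50% reduction relative to untreated wells. The cells were Rep5.1 replicon cells cultured in DMEM-10 with 500 μg/ml G418, plated at 5000 per well and dosed with serial dilutions after 4 h attachment.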

[1] = Hepatitis C virus, 72 h, concentration at which 50% of HCV proteins was decreased, Table 2, read-out: IC50
[2] = Hepatitis C virus, 72 h, decrease of HCV proteins measured by HCV antibody, Table 1, read-out: Level (IC50 values classified)
[3] = concentration at which 50% of HCV proteins was decreased, Table 2, read-out: IC50

Row | Compound | pIC50 [1] | pIC50 [2] | pIC50 [3]
1 | CC1=C(C(=O)OCC=Cc2ccsc2)CNC(=S)N1 [Compound 244, 6-methyl-2-thioxo-1,2,3,4-tetrahydro-pyrimidine-5-carboxylic acid 3-thiophen-3-yl-allyl ester] | 6.30 | > 6.00 | 
2 | CC1=C(C(=O)OCCCCSc2nc3ccccc3s2)C(CF)NC(=S)N1 (stereo not drawn) [55′, 4-fluoromethyl-6-methyl-2-thioxo-1,2,3,4-tetrahydro-pyrimidine-5-carboxylic acid 4-(benzothiazol-2-ylsulfanyl)-butyl ester] | 5.80 | 5.00 to 6.00 | 
3 | COc1ccccc1CCCOC(=O)C1=C(C)NC(=S)NC1 [Compound 104, 6-methyl-2-thioxo-1,2,3,4-tetrahydro-pyrimidine-5-carboxylic acid 3-(2-methoxy-phenyl)-propyl ester] | > 6.40 | > 6.00 | 
4 | CC1=C(C(=O)OCCc2ccoc2)CNC(=S)N1 [Compound 254, 6-methyl-2-thioxo-1,2,3,4-tetrahydro-pyrimidine-5-carboxylic acid 2-furan-3-yl-ethyl ester] | 5.52 | 5.00 to 6.00 | 
5 | CC1=C(C(=O)OCCc2ccccc2F)CNC(=S)N1 [Compound 116, 6-methyl-2-thioxo-1,2,3,4-tetrahydro-pyrimidine-5-carboxylic acid 2-(2-fluoro-phenyl)-ethyl ester] | 6.30 | > 6.00 | 
6 | CC1=C(C(=O)OCCc2ccc(F)cc2)C(CO)NC(=S)N1 (stereo not drawn) [5″, 4-hydroxymethyl-6-methyl-2-thioxo-1,2,3,4-tetrahydro-pyrimidine-5-carboxylic acid 2-(4-fluoro-phenyl)-ethyl ester] | 5.22 | 5.00 to 6.00 | 
7 | CC1=C(C(=O)OCCCc2ccco2)CNC(=S)N1 [Compound 250, 6-methyl-2-thioxo-1,2,3,4-tetrahydro-pyrimidine-5-carboxylic acid 3-furan-2-yl-propyl ester] | 6.40 | > 6.00 | 
8 | CC1=C(C(=O)OCc2ccc(-c3ccccc3)cc2)CNC(=S)N1 [Compound 22, 6-methyl-2-thioxo-1,2,3,4-tetrahydro-pyrimidine-5-carboxylic acid biphenyl-4-ylmethyl ester] | 6.40 | > 6.00 | 
9 | CC1=C(C(=O)OCc2noc(C)n2)CNC(=S)N1 [30′, 6-methyl-2-thioxo-1,2,3,4-tetrahydro-pyrimidine-5-carboxylic acid 5-methyl-[1,2,4]oxadiazol-3-ylmethyl ester] | < 4.00 | < 4.70 | 
10 | O=C(OCc1ccccc1)C1=C(C(=O)OCc2ccccc2)NC(=S)NC1 [Compound 87, 2-thioxo-1,2,3,6-tetrahydro-pyrimidine-4,5-dicarboxylic acid dibenzyl ester] | 4.25 | < 4.70 | 
11 | CCCCCCC#CCCOC(=O)C1=C(C)NC(=S)NC1 [Compound 200, 6-methyl-2-thioxo-1,2,3,4-tetrahydro-pyrimidine-5-carboxylic acid dec-3-inyl ester] |  |  | > 6.40
12 | CCNC(=O)OCC1NC(=S)NC(C)=C1C(=O)OCCCc1cccs1 (stereo not drawn) [20″, 4-ethylcarbamoyloxymethyl-6-methyl-2-thioxo-1,2,3,4-tetrahydro-pyrimidine-5-carboxylic acid 3-thiophen-2-yl-propyl ester] | 4.48 | < 4.70 | 
13 | CC1=C(C(=O)OCc2cccs2)CNC(=S)N1 [Compound 153, 6-methyl-2-thioxo-1,2,3,4-tetrahydro-pyrimidine-5-carboxylic acid thiophen-2-ylmethyl ester] | 5.57 | 5.00 to 6.00 | 
14 | O=C(OCc1ccccc1)C1=C(CCc2ccccc2)NC(=S)NC1 [Compound 19, 6-phenethyl-2-thioxo-1,2,3,4-tetrahydro-pyrimidine-5-carboxylic acid benzyl ester] | 5.80 | > 6.00 | 
15 | CC1=C(C(=O)OCc2ccc(Br)cc2)CNC(=S)N1 [Compound 60, 6-methyl-2-thioxo-1,2,3,4-tetrahydro-pyrimidine-5-carboxylic acid 4-bromo-benzyl ester] | > 6.30 | > 6.00 | 
16 | CC1=C(C(=O)SCc2ccccc2)CNC(=S)N1 [Compound 85, 6-methyl-2-thioxo-1,2,3,4-tetrahydro-pyrimidine-5-carbothioic acid S-benzyl ester] | 7.00 | > 6.00 | 
17 | CC1=C(C(=O)OCc2ccccc2SCC(C)C)CNC(=S)N1 [Compound 111, 6-methyl-2-thioxo-1,2,3,4-tetrahydro-pyrimidine-5-carboxylic acid 2-isobutylsulfanyl-benzyl ester] | 5.70 | 5.00 to 6.00 | 
18 | CC1=C(C(=O)OCCc2ccsc2Br)CNC(=S)N1 [Compound 247, 6-methyl-2-thioxo-1,2,3,4-tetrahydro-pyrimidine-5-carboxylic acid 2-(2-bromo-thiophen-3-yl)-ethyl ester] | > 6.40 | > 6.00 | 

Row | Compound | pIC50 [1] | pIC50 [2] | pIC50 [3]
19 | CC1=C(C(=O)OCCOCc2ccccc2)CNC(=S)N1 [Compound 15, 6-methyl-2-thioxo-1,2,3,4-tetrahydro-pyrimidine-5-carboxylic acid 2-benzyloxy-ethyl ester] | 5.52 | 5.00 to 6.00 | 
20 | CC1=C(C(=O)OCCc2ccsc2)CNC(=S)N1 [Compound 208, 6-methyl-2-thioxo-1,2,3,4-tetrahydro-pyrimidine-5-carboxylic acid 2-thiophen-3-yl-ethyl ester] | > 6.40 | > 6.00 | 
21 | CC1=C(C(=O)OCc2cccc(C)c2)CNC(=S)N1 [Compound 90, 6-methyl-2-thioxo-1,2,3,4-tetrahydro-pyrimidine-5-carboxylic acid 3-methyl-benzyl ester] | 6.40 | > 6.00 | 
22 | CC1=C(C(=O)OCCCc2cccs2)C(CF)NC(=S)N1 (stereo not drawn) [10′, 4-fluoromethyl-6-methyl-2-thioxo-1,2,3,4-tetrahydro-pyrimidine-5-carboxylic acid 3-thiophen-2-yl-propyl ester] | 5.92 | 5.00 to 6.00 | 
23 | COC(=O)C(C)(C)COC(=O)OCC1NC(=S)NC(C)=C1C(=O)OCCc1cccc(Cl)c1 (stereo not drawn) [82″, 4-(2-methoxycarbonyl-2-methyl-propoxycarbonyloxymethyl)-6-methyl-2-thioxo-1,2,3,4-tetrahydro-pyrimidine-5-carboxylic acid 2-(3-chloro-phenyl)-ethyl ester] | 6.10 | > 6.00 | 
24 | CC1=C(C(=O)OCC#Cc2ccccc2)CNC(=S)N1 [Compound 192, 6-methyl-2-thioxo-1,2,3,4-tetrahydro-pyrimidine-5-carboxylic acid 3-phenyl-prop-2-inyl ester] |  |  | > 6.40
25 | CC1=C(C(=O)OCCc2c(F)c(F)c(F)c(F)c2F)C(CF)NC(=S)N1 (stereo not drawn) [60′, 4-fluoromethyl-6-methyl-2-thioxo-1,2,3,4-tetrahydro-pyrimidine-5-carboxylic acid 2-pentafluorophenyl-ethyl ester] |  |  | 5.40
26 | COc1ccc(CCCOC(=O)C2=C(C)NC(=S)NC2CF)cc1 (stereo not drawn) [43′, 4-fluoromethyl-6-methyl-2-thioxo-1,2,3,4-tetrahydro-pyrimidine-5-carboxylic acid 3-(4-methoxy-phenyl)-propyl ester] | 5.74 | 5.00 to 6.00 | 
27 | CC1=C(C(=O)OCc2cccc(SC(F)(F)F)c2)C(CF)NC(=S)N1 (stereo not drawn) [72′, 4-fluoromethyl-6-methyl-2-thioxo-1,2,3,4-tetrahydro-pyrimidine-5-carboxylic acid 3-trifluoromethylsulfanyl-benzyl ester] | > 6.40 | > 6.00 | 
28 | CC1=C(C(=O)OCCc2ccccc2Cl)CNC(=S)N1 [Compound 118, 6-methyl-2-thioxo-1,2,3,4-tetrahydro-pyrimidine-5-carboxylic acid 2-(2-chloro-phenyl)-ethyl ester] | > 6.40 | > 6.00 | 
29 | CC1=C(C(=O)OCc2ccc(C(F)(F)F)cc2)CNC(=S)N1 [Compound 114, 6-methyl-2-thioxo-1,2,3,4-tetrahydro-pyrimidine-5-carboxylic acid 4-trifluoromethyl-benzyl ester] | > 6.40 | > 6.00 | 
30 | CCc1ccc(COC(=O)C2=C(C)NC(=S)NC2)s1 [Compound 205, 6-methyl-2-thioxo-1,2,3,4-tetrahydro-pyrimidine-5-carboxylic acid 5-ethyl-thiophen-2-ylmethyl ester] | 5.74 | 5.00 to 6.00 | 
31 | CC1=C(C(=O)OCCc2ccc(N3CC=CC3)c([N+](=O)[O-])c2)C(CO)NC(=S)N1 (stereo not drawn) [101″, 4-Hydroxymethyl-6-methyl-2-thioxo-1,2,3,4-tetrahydro-pyrimidine-5-carboxylic acid 2-[4-(2,5-dihydro-pyrrol-1-yl)-3-nitro-phenyl]-ethyl ester] | 5.92 | 5.00 to 6.00 | 
32 | CC1=C(C(=O)OCC#Cc2ccccc2)C(CF)NC(=S)N1 (stereo not drawn) [45′, 4-fluoromethyl-6-methyl-2-thioxo-1,2,3,4-tetrahydro-pyrimidine-5-carboxylic acid 3-phenyl-prop-2-inyl ester] |  |  | 6.10
33 | COc1cc(COC(=O)C2=C(C)NC(=S)NC2)cc(OC)c1 [Compound 81, 6-methyl-2-thioxo-1,2,3,4-tetrahydro-pyrimidine-5-carboxylic acid 3,5-dimethoxy-benzyl ester] | 5.52 | 5.00 to 6.00 | 
34 | CCCN(CCC)c1ccc(CCOC(=O)C2=C(C)NC(=S)NC2CO)cc1[N+](=O)[O-] (stereo not drawn) [93″, 4-Hydroxymethyl-6-methyl-2-thioxo-1,2,3,4-tetrahydro-pyrimidine-5-carboxylic acid 2-(4-dipropylamino-3-nitro-phenyl)-ethyl ester] | 6.30 | > 6.00 | 
35 | CC1=C(C(=O)OCc2ccc(Cl)cc2)C(CF)NC(=S)N1 (stereo not drawn) [34′, 4-fluoromethyl-6-methyl-2-thioxo-1,2,3,4-tetrahydro-pyrimidine-5-carboxylic acid 4-chloro-benzyl ester] | 6.15 | > 6.00 | 
